# Data taken from ChEMBL document CHEMBL1134487, “Design, synthesis, and biological evaluation of analogues of the antitumor agent, 2-(4-[(7-chloro-2-quinoxalinyl)oxy]phenoxy)propionic acid (XK469)” (2001).
# Active and inactive are the calls of the source. The rule behind the calls is not given here.
# Legend:
# Mus musculus [1] = assay: In vivo activity tested against C3H mice bearing colon adenocarcinoma -38(colon-38) tumor measured as % treated/control calculated at 495 mg/kg (po); assay type: functional
# Mus musculus [2] = assay: In vivo activity tested against C3H mice bearing colon adenocarcinoma -38(colon-38) tumor measured as log Kill value was based on tumors that grew at 495 mg/kg (po); assay type: functional, organism-based; parameters: dose 495 mg/kg
# Mus musculus [3] = assay: In vivo activity tested against C3H mice bearing colon adenocarcinoma -38(colon-38) tumor, measured as cures at 495 mg/kg (po); 3/5 cures; assay type: functional
# Mus musculus [4] = assay: In vivo activity tested against C3H mice bearing colon adenocarcinoma -38(colon-38) tumor measured as activity rating at 495 mg/kg (po); assay type: functional
# Mus musculus [5] = assay: In vivo activity tested against C3H mice bearing colon adenocarcinoma -38(colon-38) tumor measured as body weight loss at 495 mg/kg (po); assay type: functional
# Mus musculus [6] = assay: In vivo activity tested against C3H mice bearing panc-03 murine tumor at a dose of 330mg/kg, measured as % treated/control; assay type: functional
# Mus musculus [7] = assay: In vivo activity tested against C3H mice bearing panc-03 murine tumor at a dose of 330 mg/kg, measured as activity rating at 330 mg/kg iv dose; assay type: functional
# Mus musculus [8] = assay: In vivo activity tested against C3H mice bearing panc-03 murine tumor, measured as cures at 1085 mg/kg (po); 3/5 cures; assay type: functional
# Mus musculus [9] = assay: In vivo activity tested against C3H mice bearing panc-03 murine tumor measured as % treated/control calculated at 1085 mg/kg (po); assay type: functional
# Mus musculus [10] = assay: In vivo activity tested against C3H mice bearing panc-03 murine tumor measured as log Kill value was based on tumors that grew at 1085 mg/kg (po); assay type: functional, organism-based; parameters: dose 1085 mg/kg
# Mus musculus [11] = assay: In vivo activity tested against C3H mice bearing panc-03 murine tumor measured as body weight loss at 1085 mg/kg (po); assay type: functional
# Mus musculus [12] = assay: In vivo activity tested against C3H mice bearing panc-03 murine tumor measured as activity rating at 1085 mg/kg (po); assay type: functional
# Mus musculus [13] = assay: In vivo activity tested against C3H mice bearing panc-03 murine tumor measured as % treated/control calculated at 144 mg/kg (po); assay type: functional
# Mus musculus [14] = assay: In vivo activity tested against C3H mice bearing mammary adenocarcinoma -17/ADR tumor measured as % treated/control calculated at 216 mg/kg (po); assay type: functional
# Mus musculus [15] = assay: In vivo activity tested against C3H mice bearing mammary adenocarcinoma -17/ADR tumor measured as log Kill value was based on tumors that grew at 216 mg/kg (po); assay type: functional, organism-based; parameters: dose 216 mg/kg
# Mus musculus [16] = assay: In vivo activity tested against C3H mice bearing mammary adenocarcinoma -17/ADR tumor measured as body weight loss at 216 mg/kg (po); assay type: functional
# Mus musculus [17] = assay: In vivo activity tested against C3H mice bearing panc-03 murine tumor measured as body weight loss at 144 mg/kg (po); assay type: functional
# Mus musculus [18] = assay: In vivo activity tested against C3H mice bearing panc-03 murine tumor measured as log Kill value was based on tumors that grew at 144 mg/kg (po); assay type: functional, organism-based; parameters: dose 144 mg/kg
# Mus musculus [19] = assay: In vivo activity tested against C3H mice bearing mammary adenocarcinoma -16c/ADR tumor measured as log Kill value was based on tumors that grew at 164 mg/kg (po); assay type: functional, organism-based; parameters: dose 164 mg/kg
# Mus musculus [20] = assay: In vivo activity tested against C3H mice bearing mammary adenocarcinoma -16c/ADR tumor measured as % treated/control calculated at 164 mg/kg (po); assay type: functional
# Mus musculus [21] = assay: In vivo activity tested against C3H mice bearing mammary adenocarcinoma -17/ADR tumor measured as % treated/control calculated at 162 mg/kg (po); assay type: functional
# Mus musculus [22] = assay: In vivo activity tested against C3H mice bearing mammary adenocarcinoma -17/ADR tumor measured as log Kill value was based on tumors that grew at 162 mg/kg (po); assay type: functional, organism-based; parameters: dose 162 mg/kg
# Mus musculus [23] = assay: In vivo activity tested against C3H mice bearing panc-03 murine tumor measured as % treated/control calculated at 324 mg/kg (po); assay type: functional
# Mus musculus [24] = assay: In vivo activity tested against C3H mice bearing panc-03 murine tumor measured as log Kill value was based on tumors that grew at 324 mg/kg (po); assay type: functional, organism-based; parameters: dose 324 mg/kg
# Mus musculus [25] = assay: In vivo activity tested against C3H mice bearing mammary adenocarcinoma -17/ADR tumor measured as log Kill value was based on tumors that grew at 99 mg/kg (po); assay type: functional, organism-based; parameters: dose 99 mg/kg
# Mus musculus [26] = assay: In vivo activity tested against C3H mice bearing panc-03 murine tumor measured as log Kill value was based on tumors that grew at 180 mg/kg (po); assay type: functional, organism-based; parameters: dose 180 mg/kg
# Mus musculus [27] = assay: In vivo activity tested against C3H mice bearing panc-03 murine tumor measured as body weight loss at 180 mg/kg (po); assay type: functional
# Mus musculus [28] = assay: In vivo activity tested against C3H mice bearing mammary adenocarcinoma -17/ADR tumor measured as % treated/control calculated at 99 mg/kg (po); assay type: functional
# Mus musculus [29] = assay: In vivo activity tested against C3H mice bearing mammary adenocarcinoma -16c/ADR tumor measured as body weight loss at 164 mg/kg (po); assay type: functional
# Mus musculus [30] = assay: In vivo activity tested against C3H mice bearing mammary adenocarcinoma -17/ADR tumor measured as body weight loss at 162 mg/kg (po); assay type: functional
# Mus musculus [31] = assay: In vivo activity tested against C3H mice bearing panc-03 murine tumor measured as % treated/control calculated at 180 mg/kg (po); assay type: functional
# Mus musculus [32] = assay: In vivo activity tested against C3H mice bearing panc-03 murine tumor measured as body weight loss at 324 mg/kg (po); assay type: functional
# Mus musculus [33] = assay: In vivo activity tested against C3H mice bearing mammary adenocarcinoma -17/ADR tumor measured as body weight loss at 99 mg/kg (po); assay type: functional
# Mus musculus [34] = assay: In vivo activity tested against C3H mice bearing colon adenocarcinoma -38(colon-38) tumor measured as activity rating at 2770 mg/kg (po); assay type: functional
# Mus musculus [35] = assay: In vivo activity tested against C3H mice bearing colon adenocarcinoma -38(colon-38) tumor measured as % treated/control calculated at 2770 mg/kg (po); assay type: functional
# Mus musculus [36] = assay: In vivo activity tested against C3H mice bearing colon adenocarcinoma -38(colon-38) tumor measured as body weight loss at 2770 mg/kg (po); assay type: functional
# Mus musculus [37] = assay: In vivo activity tested against C3H mice bearing colon adenocarcinoma -38(colon-38) tumor measured as log Kill value was based on tumors that grew at 2770 mg/kg (po); None; assay type: functional, organism-based; parameters: dose 2770 mg/kg
compound,measurement,setting,value
COC(=O)C(C)Oc1ccc(Oc2cnc3ccc(Cl)cc3n2)cc1 (configuration not stated),T/C,Mus musculus [1],0%
same,Log kill,Mus musculus [2],3.5
same,Cures,Mus musculus [3],3
same,Activity rating,Mus musculus [4],>2.8
same,Body weight loss,Mus musculus [5],0%
CC(Nc1ccc(Oc2cnc3ccc(Cl)cc3n2)cc1)C(=O)O (configuration not stated),T/C,Mus musculus [6],100%
same,Activity rating,Mus musculus [7],>2.8
CC(Oc1ccc(Oc2cnc3ccc(F)cc3n2)cc1)C(=O)O (configuration not stated),Cures,Mus musculus [8],3
same,T/C,Mus musculus [9],0%
same,Log kill,Mus musculus [10],3.7
same,Body weight loss,Mus musculus [11],-13%
same,Activity rating,Mus musculus [12],>2.8
CC(Oc1ccc(Oc2cnc3ccc(N=[N+]=[N-])cc3n2)cc1)C(=O)O (configuration not stated),T/C,Mus musculus [13],17%
same,T/C,Mus musculus [14],30%
same,Log kill,Mus musculus [15],1
same,Body weight loss,Mus musculus [16],4.3%
same,Body weight loss,Mus musculus [17],2.9%
same,Log kill,Mus musculus [18],2
COc1c(Cl)ccc2ncc(Oc3ccc(OC(C)C(=O)O)cc3)nc12 (configuration not stated),Log kill,Mus musculus [19],1.7
same,T/C,Mus musculus [20],7.5%
same,T/C,Mus musculus [21],7%
same,Log kill,Mus musculus [22],1.5
same,T/C,Mus musculus [23],0%
same,Log kill,Mus musculus [24],3
same,Log kill,Mus musculus [25],1.2
same,Log kill,Mus musculus [26],0.64
same,Body weight loss,Mus musculus [27],5%
same,T/C,Mus musculus [28],13%
same,Body weight loss,Mus musculus [29],-6.2%
same,Body weight loss,Mus musculus [30],-16.4%
same,T/C,Mus musculus [31],33%
same,Body weight loss,Mus musculus [32],-15%
same,Body weight loss,Mus musculus [33],-1.5%
COC(=O)C(C)Oc1ccc(Oc2cnc3cc(Cl)ccc3n2)cc1 (configuration not stated),Activity rating,Mus musculus [34],<0.7
same,T/C,Mus musculus [35],>100%
same,Body weight loss,Mus musculus [36],0%
same,Log kill,Mus musculus [37],inactive
